In the experiment the test system is Nilaparvata lugens (Brown Plant Hopper). The experiment in a line: Nilaparvata lugens (Brown Plant Hopper) rice seedling spray test, mortality. It is filed as in vivo. To be noted: N3 nymphs, mortality 6-12 days after treatment. As for the experimental part:
Nilaparvata lugens (Brown Plant Hopper) Rice seedlings are treated with the diluted test solutions in a spray chamber. After drying, plants are infested with 20 N3 nymphs (2 replicates). 6-12 days after the treatment samples are checked for mortality

SMILES strings stand for the structures.

`Cc1cc(C2=NOC(c3cc(Cl)cc(Cl)c3)(C(F)(F)F)C2)ccc1C(=O)NC1CON(C)C1=O` (mixture of isomers) [Compound A1]: the Control/% reads like this: (rate 12.5 ppm) 93%; (rate 25 ppm) 93%; (rate 50 ppm) 98%.
With `Cc1cc(C2=NOC(c3cc(Cl)cc(Cl)c3)(C(F)(F)F)C2)ccc1C(=O)NC1CON(CC(F)(F)F)C1=O` (mixture of isomers) [Compound A2], the Control/% (rate 12.5 ppm) stood at 80%, the Control/% (rate 25 ppm) amounted to 98% and the Control/% (rate 50 ppm) is on record as 99%.
The matching figures for `CCN1OCC(NC(=O)c2ccc(C3=NOC(c4cc(Cl)cc(Cl)c4)(C(F)(F)F)C3)cc2C)C1=O` (mixture of isomers) [Compound A4]: 88%, 93% and 100%.
`Cc1cc(C2=NOC(c3cc(Cl)cc(Cl)c3)(C(F)(F)F)C2)ccc1C(=O)NC1CON(C)C1=O` (mixture of isomers) [Compound A5]: the Control/% is on record as 0% (rate 12.5 ppm), 65% (rate 25 ppm) and 98% (rate 50 ppm).
The matching figures for `CCN1OCC(NC(=O)c2ccc(C3=NOC(c4cc(Cl)c(Cl)c(Cl)c4)(C(F)(F)F)C3)cc2C)C1=O` (mixture of isomers) [Compound A6]: 100%, 100% and 100%.
With `CCN1OCC(NC(=O)c2ccc(C3=NOC(c4cc(Cl)c(Br)c(Cl)c4)(C(F)(F)F)C3)cc2C)C1=O` (mixture of isomers) [Compound A7], the Control/% is, setting by setting: (rate 12.5 ppm) 100%; (rate 25 ppm) 100%; (rate 50 ppm) 100%.
The molecule `CCN1OCC(NC(=O)c2ccc(C3=NOC(c4cc(Cl)c(F)c(Cl)c4)(C(F)(F)F)C3)cc2C)C1=O` (mixture of isomers) [Compound A8] came in with a Control/% (rate 12.5 ppm) of 100%, a Control/% (rate 25 ppm) of 100% and a Control/% (rate 50 ppm) of 100%.
With `CCN1OCC(NC(=O)c2ccc(C3=NOC(c4cc(C(F)(F)F)c(Cl)c(C(F)(F)F)c4)(C(F)(F)F)C3)cc2C)C1=O` (mixture of isomers) [Compound A10], the Control/% by setting is: (rate 12.5 ppm) 100%; (rate 25 ppm) 100%; (rate 50 ppm) 100%.
As to `CCN1OCC(NC(=O)c2ccc(C3=NOC(c4cc(F)cc(Cl)c4)(C(F)(F)F)C3)cc2C)C1=O` (mixture of isomers) [Compound A11], the Control/% is reported as 80% (rate 12.5 ppm), 55% (rate 25 ppm) and 100% (rate 50 ppm).
As for `CCN1OCC(NC(=O)c2ccc(C3=NOC(c4cc(Cl)cc(Cl)c4)(C(F)(F)F)C3)cc2C)C1=O` (mixture of isomers) [Compound A18], the Control/% by setting is: (rate 12.5 ppm) 100%; (rate 25 ppm) 100%; (rate 50 ppm) 100%.
`Cc1cc(C2=NOC(c3cc(Cl)cc(Cl)c3)(C(F)(F)F)C2)ccc1C(=O)NC1CON(CC(F)(F)F)C1=O` (mixture of isomers) [Compound A19]: the Control/% is 100% (rate 12.5 ppm), 100% (rate 25 ppm) and 100% (rate 50 ppm).
For the molecule `Cc1cc(C2=NOC(c3cc(Cl)cc(Cl)c3)(C(F)(F)F)C2)ccc1C(=O)NC1CON(CC(F)F)C1=O` (mixture of isomers) [Compound A20], the Control/% runs as follows: (rate 12.5 ppm) 100%; (rate 25 ppm) 100%; (rate 50 ppm) 100%.
`CCN1OCC(NC(=O)c2ccc(C3=NOC(c4cc(Cl)c(F)c(Cl)c4)(C(F)(F)F)C3)cc2C)C1=O` (mixture of isomers) [Compound A21] returned a Control/% (rate 50 ppm) of 100%.
With `Cc1cc(C2=NOC(c3cc(Cl)cc(Cl)c3)(C(F)(F)F)C2)ccc1C(=O)NC1CON(C)C1=O` (mixture of isomers) [Compound A22], the Control/% was determined as 98% (rate 12.5 ppm), 100% (rate 25 ppm) and 100% (rate 50 ppm).
In the case of `Cc1cc(C2=NOC(c3cc(Cl)c(Cl)c(Cl)c3)(C(F)(F)F)C2)ccc1C(=O)NC1CON(CC(F)(F)F)C1=O` (mixture of isomers) [Compound A23], the Control/% runs as follows: (rate 12.5 ppm) 90%; (rate 25 ppm) 98%; (rate 50 ppm) 100%.
For `CCN1OCC(NC(=O)c2ccc(C3=NCC(c4cc(Cl)cc(Cl)c4)(C(F)(F)F)C3)cc2C)C1=O` (mixture of isomers) [Compound B1], in that order: 0%, 78% and 90%.
Consider `CCN1OCC(NC(=O)c2ccc(C3=COC(c4cc(Cl)cc(Cl)c4)(C(F)(F)F)C3)cc2C)C1=O` (mixture of isomers) [Compound C1], for which the Control/% runs as follows: (rate 12.5 ppm) 0%; (rate 25 ppm) 15%; (rate 50 ppm) 95%.
As to `Cc1cc(C2=NO[C@@](c3cc(Cl)cc(Cl)c3)(C(F)(F)F)C2)ccc1C(=O)N[C@@H]1CON(CC(F)F)C1=O` [Compound A12], the Control/% reads like this: (rate 12.5 ppm) 100%; (rate 25 ppm) 100%; (rate 50 ppm) 100%.
Molecule `Cc1cc(C2=NO[C@@](c3cc(Cl)c(Cl)c(Cl)c3)(C(F)(F)F)C2)ccc1C(=O)N[C@@H]1CON(CC(F)(F)F)C1=O` [Compound A13] gave a Control/% (rate 12.5 ppm) of 75%, a Control/% (rate 25 ppm) of 100% and a Control/% (rate 50 ppm) of 98%.
As to `Cc1cc(C2=NO[C@@](c3cc(Cl)c(F)c(Cl)c3)(C(F)(F)F)C2)ccc1C(=O)N[C@@H]1CON(CC(F)(F)F)C1=O` [Compound A14], the Control/% reads like this: (rate 12.5 ppm) 100%; (rate 25 ppm) 100%; (rate 50 ppm) 100%.
Turning to `CCN1OC[C@@H](NC(=O)c2ccc(C3=NO[C@@](c4cc(Cl)cc(C(F)(F)F)c4)(C(F)(F)F)C3)cc2C)C1=O` [Compound A15], the Control/% stood at 99% (rate 12.5 ppm), 99% (rate 25 ppm) and 100% (rate 50 ppm).
As for `CCN1OC[C@@H](NC(=O)c2ccc(C3=NO[C@@](c4cc(Cl)cc(Br)c4)(C(F)(F)F)C3)cc2C)C1=O` [Compound A16], the Control/% by setting is: (rate 12.5 ppm) 95%; (rate 25 ppm) 97%; (rate 50 ppm) 98%.
With `Cc1cc(C2=NO[C@@](c3cc(Cl)cc(Br)c3)(C(F)(F)F)C2)ccc1C(=O)N[C@@H]1CON(CC(F)(F)F)C1=O` [Compound A17], the Control/% is, setting by setting: (rate 12.5 ppm) 100%; (rate 25 ppm) 100%; (rate 50 ppm) 100%.
The molecule `CCN1OC[C@@H](NC(=O)c2ccc(C3=NO[C@@](c4cc(Cl)c(F)c(Cl)c4)(C(F)(F)F)C3)cc2C)C1=O` [Compound A24] returned a Control/% (rate 12.5 ppm) of 75%, a Control/% (rate 25 ppm) of 85% and a Control/% (rate 50 ppm) of 98%.
The matching figures for `CCN1OC[C@@H](NC(=O)c2ccc(C3=NO[C@@](c4cc(Cl)c(F)c(Cl)c4)(C(F)(F)F)C3)cc2Cl)C1=O` [Compound A25]: 100%, 100% and 100%.
As to `CCN1OC[C@@H](NC(=O)c2ccc(C3=NO[C@@](c4cc(Cl)cc(C(F)(F)F)c4)(C(F)(F)F)C3)c3ccccc23)C1=O` [Compound A26], the Control/% was determined as 83% (rate 12.5 ppm), 100% (rate 25 ppm) and 100% (rate 50 ppm).
Take `CCN1OC[C@@H](NC(=O)c2ccc(C3=NO[C@@](c4cc(Cl)cc(Cl)c4)(C(F)(F)F)C3)cc2C(F)(F)F)C1=O` [Compound A28]: the Control/% runs as follows: (rate 12.5 ppm) 0%; (rate 25 ppm) 50%; (rate 50 ppm) 95%.
In the case of `CCN1OC[C@@H](NC(=O)c2ccc(C3=NO[C@@](c4cc(Cl)c(Cl)c(Cl)c4)(C(F)(F)F)C3)cc2C(F)(F)F)C1=O` [Compound A29], the Control/% is, setting by setting: (rate 12.5 ppm) 55%; (rate 25 ppm) 88%; (rate 50 ppm) 100%.
For the molecule `CCN1OC[C@@H](NC(=O)c2ccc(C3=NO[C@@](c4cccc(C(F)(F)F)c4)(C(F)(F)F)C3)cc2C)C1=O` [Compound A30], the Control/% reads like this: (rate 12.5 ppm) 93%; (rate 25 ppm) 100%; (rate 50 ppm) 98%.
The matching figures for `CCN1OC[C@@H](NC(=O)c2ccc(C3=NO[C@@](c4cc(Cl)c(Cl)c(Cl)c4)(C(F)(F)F)C3)cc2Br)C1=O` [Compound A33]: 80%, 98% and 98%.
For `CCN1OC[C@@H](NC(=O)c2ccc(C3=NO[C@@](c4cc(Cl)cc(Cl)c4)(C(F)(F)F)C3)cc2Br)C1=O` [Compound A34], the Control/% runs as follows: (rate 12.5 ppm) 98%; (rate 25 ppm) 100%; (rate 50 ppm) 100%.
Turning to `CCN1OC[C@@H](NC(=O)c2ccc(C3=NO[C@@](c4cc(Cl)c(Cl)c(Cl)c4)(C(F)(F)F)C3)cc2C)C1=O` [Compound A35], the Control/% is recorded as 93% (rate 12.5 ppm), 100% (rate 25 ppm) and 98% (rate 50 ppm).
As for `CCN1OCC(NC(=O)c2ccc(C3=NCC(c4cc(Cl)cc(Cl)c4)(C(F)(F)F)C3)cc2C)C1=O` (stereo not shown) [Compound B2], the Control/% was 15% (rate 12.5 ppm), 70% (rate 25 ppm) and 88% (rate 50 ppm).
On to `Cc1cc(C2=NCC(c3cc(Cl)cc(Cl)c3)(C(F)(F)F)C2)ccc1C(=O)NC1CON(CC(F)(F)F)C1=O` (stereo not shown) [Compound B3], for which the Control/% by setting is: (rate 12.5 ppm) 100%; (rate 25 ppm) 100%; (rate 50 ppm) 100%.

(Values after patent publication US9474279B2, “Methods of controlling insects” (Syngenta Participations AG, priority 2012, dated 2016).)
